Laboratory results taken from ChEMBL document CHEMBL3885861, “Open TG-GATES”.

Species on record: Rattus norvegicus
Experiment: Open TG-GATES - Regimen: Daily Repeat
Assay type: toxicity, organism-based, Sprague-Dawley
Design: regimen Daily Repeat, gender Male, age 6 weeks
Settings: in vivo, po, route gavage; for APTT / Bas / Eos / Fbg / Hb / Ht / Lym / MCH / MCV / Mono / Neu / PT / Plat / RBC / Ret / WBC: tissue Blood; for KIDNEY_L / KIDNEY_R / KIDNEY_TOTAL: tissue Kidney; for LIVER: tissue Liver; for ALP / ALT / AST / BUN / CRE / Ca / Cl / DBIL / GLC / IP / K / LDH / Na / PL / RALB / TBIL / TP / gamma-GTP: tissue Plasma
[1] = 30 mg/kg, 72 h, dose level Low, time 3 day
[2] = 30 mg/kg, […], dose level Low, time 7 day
[3] = 30 mg/kg, […], dose level Low, time 14 day
[4] = 30 mg/kg, […], dose level Low, time 28 day
[5] = 100 mg/kg, 72 h, dose level Middle, time 3 day

## NC(=O)N1c2ccccc2C=Cc2ccccc21 [CARBAMAZEPINE]
[1]
  APTT: 19.7 s
  Bas: 0%
  Eos: 1%
  Fbg: 213 mg/dL
  Hb: 13.4 g/dL
  Ht: 39.4%
  Lym: 80.4%
  MCH: 21 pg
  MCV: 62 fL
  Mono: 3.4%
  Neu: 14%
  PT: 12.2 s
  Plat: 120.4 x10_4/uL
  RBC: 636 x10_4/ul
  Ret: 5.2%
  WBC: 98.2 x10_2/uL
  KIDNEY_L: 1 g
  KIDNEY_R: 1 g
  KIDNEY_TOTAL: 2 g
  LIVER: 11.7 g
  ALP: 1007.4 IU/L
  ALT: 35.6 IU/L
  AST: 66.6 IU/L
  BUN: 14.8 mg/dL
  CRE: 0.4 mg/dL
  Ca: 10.8 mg/dL
  Cl: 103.2 meq/L
  DBIL: 0.094 mg/dL
  GLC: 209.6 mg/dL
  IP: 7.6 mg/dL
  K: 3.5 meq/L
  LDH: 197.2 IU/L
  Na: 140 meq/L
  PL: 148.8 mg/dL
  RALB: 3.3 g/dL
  TBIL: 0.1 mg/dL
  TP: 5.6 g/dL
  gamma-GTP: 1.2 IU/L
[2]
  TERMINAL_BW: 270.1 g
  APTT: 21.4 s
  Bas: 0%
  Eos: 0.8%
  Fbg: 214.2 mg/dL
  Hb: 13.7 g/dL
  Ht: 40.2%
  Lym: 83.2%
  MCH: 20.8 pg
  MCV: 61.1 fL
  Mono: 2.4%
  Neu: 12.6%
  PT: 12 s
  Plat: 127.1 x10_4/uL
  RBC: 658.2 x10_4/ul
  Ret: 4.4%
  WBC: 103.7 x10_2/uL
  KIDNEY_L: 1.1 g
  KIDNEY_R: 1.1 g
  KIDNEY_TOTAL: 2.2 g
  LIVER: 12.5 g
  ALP: 876.6 IU/L
  ALT: 37 IU/L
  AST: 70.6 IU/L
  BUN: 16.2 mg/dL
  CRE: 0.4 mg/dL
  Ca: 10.4 mg/dL
  Cl: 100.8 meq/L
  DBIL: 0.088 mg/dL
  GLC: 233.6 mg/dL
  IP: 8.2 mg/dL
  K: 3.7 meq/L
  LDH: 187.4 IU/L
  Na: 139.4 meq/L
  PL: 150.8 mg/dL
  RALB: 3.4 g/dL
  TBIL: 0.1 mg/dL
  TP: 5.7 g/dL
  gamma-GTP: 1 IU/L
[3]
  TERMINAL_BW: 327.6 g
  APTT: 20.7 s
  Bas: 0%
  Eos: 1%
  Fbg: 206.2 mg/dL
  Hb: 14.3 g/dL
  Ht: 41.1%
  Lym: 83%
  MCH: 20.4 pg
  MCV: 58.8 fL
  Mono: 2.4%
  Neu: 12.6%
  PT: 12.2 s
  Plat: 119.9 x10_4/uL
  RBC: 700.8 x10_4/ul
  Ret: 4%
  WBC: 100 x10_2/uL
  KIDNEY_L: 1.3 g
  KIDNEY_R: 1.3 g
  KIDNEY_TOTAL: 2.6 g
  LIVER: 15.3 g
  ALP: 890.2 IU/L
  ALT: 30.8 IU/L
  AST: 60.8 IU/L
  BUN: 16.9 mg/dL
  CRE: 0.5 mg/dL
  Ca: 10.7 mg/dL
  Cl: 101.2 meq/L
  DBIL: 0.1 mg/dL
  GLC: 219.8 mg/dL
  IP: 7.1 mg/dL
  K: 3.8 meq/L
  LDH: 208.4 IU/L
  Na: 140.6 meq/L
  PL: 160.2 mg/dL
  RALB: 3.4 g/dL
  TBIL: 0.2 mg/dL
  TP: 5.9 g/dL
  gamma-GTP: 0.8 IU/L
[4]
  TERMINAL_BW: 366.9 g
  APTT: 21 s
  Bas: 0%
  Eos: 0.8%
  Fbg: 197.8 mg/dL
  Hb: 15.9 g/dL
  Ht: 45.7%
  Lym: 83%
  MCH: 19.5 pg
  MCV: 55.9 fL
  Mono: 2.2%
  Neu: 12.6%
  PT: 12.3 s
  Plat: 108.1 x10_4/uL
  RBC: 820.4 x10_4/ul
  Ret: 2.2%
  WBC: 127.9 x10_2/uL
  KIDNEY_L: 1.3 g
  KIDNEY_R: 1.3 g
  KIDNEY_TOTAL: 2.6 g
  LIVER: 14.4 g
  ALP: 673 IU/L
  ALT: 36.6 IU/L
  AST: 68.4 IU/L
  BUN: 17.8 mg/dL
  CRE: 0.5 mg/dL
  Ca: 10.3 mg/dL
  Cl: 101.8 meq/L
  DBIL: 0.098 mg/dL
  GLC: 224.4 mg/dL
  IP: 6.7 mg/dL
  K: 3.4 meq/L
  LDH: 150.8 IU/L
  Na: 141.4 meq/L
  PL: 148 mg/dL
  RALB: 3.5 g/dL
  TBIL: 0.1 mg/dL
  TP: 6.2 g/dL
  gamma-GTP: 1 IU/L
[5]
  TERMINAL_BW: 234.6 g
  APTT: 20.1 s
  Bas: 0%
